We go through 52 molecules from US20080090805A1, “CB-1 MODULATING COMPOUNDS AND THEIR USE” (ACADIA PHARMACEUTICALS INC., priority 2005, published 2008).

Data set [1] in a line: Clearance study, liver microsomes (human). The note with it: pH 7.4.
Data set [2] in a line: Clearance study, liver microsomes (rats). The conditions noted are these: rat, pH 7.4. A general note: Liver microsomes are a subcellular fraction often used to study metabolism.

Regarding `O=C(NCCc1ccccc1)c1ccc2c(c1)N=C(c1ccc(Cl)cc1)c1ccccc1S2` [drawing 1745], the values for the microsomal CLint at 1 μM in data set [1] and in data set [2] were 62 µL/min/mg and 144 µL/min/mg, respectively.
On the same counts, the results for `O=C(NCc1cccc(Cl)c1)c1ccc2c(c1)N=C(C1CCCCC1)c1ccccc1S2` [drawing 1777] are 70 µL/min/mg and 458 µL/min/mg.
On the same counts, the results for `O=C(NCCCC(F)(F)F)c1ccc2c(c1)N=C(c1ccc(Cl)cc1F)c1ccccc1S2` [drawing 1653] are 14 µL/min/mg and 105 µL/min/mg.
On the same counts, the results for `Cc1csc(CNC(=O)c2ccc3c(c2)N=C(c2ccc(Cl)s2)c2ccccc2S3)c1` [drawing 1707] are 27 µL/min/mg and 90 µL/min/mg.
For the molecule `O=C(NCCc1ccc(Cl)cc1)c1ccc2c(c1)N=C(c1ccc(F)cc1)c1ccccc1S2` [drawing 1799], the microsomal CLint at 1 μM in data set [1] was found to be 100 µL/min/mg; in data set [2] it was 208 µL/min/mg.
On the same counts, the results for `O=C(NCCc1ccc(Cl)cc1)c1ccc2c(c1)N=C(N1CCC(F)(F)CC1)c1ccccc1S2` [drawing 1802] are 343 µL/min/mg and 289 µL/min/mg.
On the same counts, the results for `O=C(NCCc1ccc(Cl)cc1)c1ccc2c(c1)N=C(C1CCCCC1)c1ccccc1S2` [drawing 1737] are 138 µL/min/mg and 230 µL/min/mg.
Regarding `COc1ccc(C2=Nc3cc(C(=O)NCCC(C)C)ccc3Sc3ccccc32)cc1` [drawing 1785], the values for the microsomal CLint at 1 μM in data set [1] and in data set [2] were 123 µL/min/mg and 177 µL/min/mg, respectively.
Turning to `O=C(NCCc1ccc(Cl)cc1)c1ccc2c(c1)N=C(c1ccc(Cl)cc1)c1ccccc1S2` [drawing 1807], the microsomal CLint at 1 μM in data set [1] came out at 54 µL/min/mg; in data set [2], 122 µL/min/mg.
Regarding `Cc1cccc(C2=Nc3cc(C(=O)NCc4ccc(C)o4)ccc3Sc3ccccc32)n1` [drawing 1789], the microsomal CLint at 1 μM in data set [1] is 114 µL/min/mg; in data set [2], 632 µL/min/mg.
On the same counts, the results for `O=C(NNCC(F)(F)F)c1ccc2c(c1)N=C(c1ccc(Cl)cc1)c1ccccc1S2` [drawing 1696] are 21 µL/min/mg and 39 µL/min/mg.
Regarding `Cc1csc(CNC(=O)c2ccc3c(c2)N=C(c2cccc(C)n2)c2ccccc2S3)c1` [drawing 1727], the microsomal CLint at 1 μM worked out at 113 µL/min/mg in data set [1] and 725 µL/min/mg in data set [2].
On the same counts, the results for `O=C(NCc1cccc(Cl)c1)c1ccc2c(c1)N=C(N1CCCCC1)c1ccccc1[S+]2[O-]` (centres unmarked) [drawing 1774] are 90 µL/min/mg and 416 µL/min/mg.
On the same counts, the results for `CCCCNC(=O)c1ccc2c(c1)N=C(c1cccc(Cl)c1)c1cc(F)ccc1S2` [drawing 1682] are 16 µL/min/mg and 63 µL/min/mg.
On the same counts, the results for `CCOC(=O)N1CCC(NC(=O)c2ccc3c(c2)N=C(c2ccc(Cl)cc2)c2ccccc2S3)CC1` [drawing 1726] are 88 µL/min/mg and 89 µL/min/mg.
Turning to `O=C(NCc1ccc(Cl)cc1Cl)c1ccc2c(c1)N=C(c1ccc(Cl)cc1)c1ccccc1S2` [drawing 1796], the microsomal CLint at 1 μM came to 1 µL/min/mg in data set [1] and 5 µL/min/mg in data set [2].
On the same counts, the results for `O=C(NCc1ccc(F)cc1)c1ccc2c(c1)N=C(c1ccc(Cl)cc1)c1ccccc1S2(=O)=O` [drawing 1776] are 13 µL/min/mg and 17 µL/min/mg.
On the same counts, the results for `CCCCNC(=O)c1ccc2c(c1)N=C(c1ccc(Cl)s1)c1cc(F)ccc1S2` [drawing 1710] are 41 µL/min/mg and 111 µL/min/mg.
On the same counts, the results for `O=C(NCCCc1ccccc1)c1ccc2c(c1)N=C(c1cccc(Cl)c1)c1ccccc1S2` [drawing 1765] are 72 µL/min/mg and 163 µL/min/mg.
Regarding `Cc1cccc(C2=Nc3cc(C(=O)NCC(C)C)ccc3Sc3ccccc32)n1` [drawing 1692], the microsomal CLint at 1 μM in data set [1] was determined as 35 µL/min/mg; in data set [2], 204 µL/min/mg.
On the same counts, the results for `CCCCNC(=O)c1cnc2c(n1)N=C(c1ccccc1)c1ccccc1S2` [drawing 1722] are 38 µL/min/mg and 44 µL/min/mg.
On the same counts, the results for `CC(C)CNC(=O)c1ccc2c(c1)N=C(c1ccc(Cl)cn1)c1ccc(Cl)cc1S2` [drawing 1806] are 13 µL/min/mg and 135 µL/min/mg.
On the same counts, the results for `O=C(NCc1ccccc1Cl)c1ccc2c(c1)N=C(c1ccccc1)c1ccccc1S2` [drawing 1780] are 57 µL/min/mg and 178 µL/min/mg.
For the molecule `CCCCNC(=O)c1ccc2c(c1)N=C(c1ccc(Cl)cc1)c1ccc(F)cc1S2` [drawing 1663], the intrinsic clearance (microsomal CLint) at 1 μM was found to be 9 µL/min/mg in data set [1] and 79 µL/min/mg in data set [2].
As to `CCCCNC(=O)c1ccc2c(c1)N=C(c1ccc(Cl)s1)c1ccc(Cl)cc1S2` [drawing 1694], the microsomal CLint at 1 μM came out at 15 µL/min/mg in data set [1] and 55 µL/min/mg in data set [2].
On the same counts, the results for `CCCCNC(=O)c1ccc2c(c1)N=C(c1ccc(Cl)cn1)c1cc(F)ccc1S2` [drawing 1748] are 57 µL/min/mg and 131 µL/min/mg.
On the same counts, the results for `Cc1ccc(CNC(=O)c2ccc3c(c2)N=C(c2ccc(Cl)s2)c2ccccc2S3)o1` [drawing 1697] are 30 µL/min/mg and 124 µL/min/mg.
On the same counts, the results for `O=C(NCc1cccc(Cl)c1)c1ccc2c(c1)N=C(c1cccc(Cl)c1)c1ccccc1S2` [drawing 1729] are 36 µL/min/mg and 74 µL/min/mg.
Turning to `CC(C)CNC(=O)c1ccc2c(c1)N=C(c1ccc(Cl)cc1)c1ccc(Cl)cc1S2` [drawing 1718], the figures for the microsomal CLint at 1 μM in data set [1] and in data set [2] were 4 µL/min/mg and 37 µL/min/mg, respectively.
On the same counts, the results for `O=C(NCCc1ccc(Cl)cc1)c1ccc2c(c1)N=C(c1cccc(Cl)c1)c1ccccc1S2` [drawing 1739] are 62 µL/min/mg and 83 µL/min/mg.
`CC(C)CNC(=O)c1ccc2c(c1)N=C(c1ccc(Cl)s1)c1ccc(F)cc1S2` [drawing 1793]: the microsomal CLint at 1 μM in data set [1] came to 32 µL/min/mg; in data set [2], 49 µL/min/mg.
On the same counts, the results for `COc1cccc(C2=Nc3cc(C(=O)NCCCC(F)(F)F)ccc3Sc3ccccc32)n1` [drawing 1667] are 24 µL/min/mg and 144 µL/min/mg.
On the same counts, the results for `O=C(NCCCC(F)(F)F)c1ccc2c(c1)N=C(c1cccc(F)c1)c1ccccc1S2` [drawing 1719] are 24 µL/min/mg and 182 µL/min/mg.
For `O=C(NCCc1ccc(Cl)cc1)c1ccc2c(c1)N=C(N1CCCCC1)c1ccccc1S2` [drawing 1783], the microsomal CLint at 1 μM amounted to 434 µL/min/mg in data set [1] and 506 µL/min/mg in data set [2].
Consider `CC(CNC(=O)c1ccc2c(c1)N=C(C1CCCCC1)c1ccccc1S2)c1ccccc1` (centres unmarked) [drawing 1769], for which the microsomal CLint at 1 μM in data set [1] is 125 µL/min/mg; in data set [2], 267 µL/min/mg.
In the case of `CC(C)CNC(=O)c1ccc2c(c1)N=C(c1ccc(Cl)cn1)c1ccc(F)cc1S2` [drawing 1746], the microsomal CLint at 1 μM in data set [1] was 25 µL/min/mg; in data set [2], 175 µL/min/mg.
On the same counts, the results for `O=C(NCc1ccc(F)cc1)c1ccc2c(c1)N=C(c1ccccc1)c1ccccc1S2` [drawing 1787] are 73 µL/min/mg and 242 µL/min/mg.
On the same counts, the results for `O=C(NCCc1ccccc1)c1ccc2c(c1)N=C(c1ccc(F)cc1)c1ccccc1S2` [drawing 1773] are 109 µL/min/mg and 274 µL/min/mg.
On the same counts, the results for `CCN(CCNC(=O)c1ccc2c(c1)N=C(c1ccc(F)cc1)c1ccccc1S2)c1ccccc1` [drawing 1749] are 278 µL/min/mg and 484 µL/min/mg.
Turning to `O=C(NCc1cccc(Cl)c1)c1ccc2c(c1)N=C(N1CCC(F)CC1)c1ccccc1S2` [drawing 1714], the microsomal CLint at 1 μM was found to be 96 µL/min/mg in data set [1] and 477 µL/min/mg in data set [2].
On the same counts, the results for `CCCCNC(=O)c1ccc2c(c1)N=C(c1ccc(Cl)cc1)c1cc(F)ccc1S2` [drawing 1702] are 12 µL/min/mg and 74 µL/min/mg.
On the same counts, the results for `CC(NC(=O)c1ccc2c(c1)N=C(c1ccc(Cl)cc1)c1ccccc1S2)c1ccccc1` (centres unmarked) [drawing 1804] are 18 µL/min/mg and 62 µL/min/mg.
On the same counts, the results for `O=C(NCc1cccc(Cl)c1)c1ccc2c(c1)N=C(c1ccc(F)cc1)c1ccccc1[S+]2[O-]` (centres unmarked) [drawing 1790] are 24 µL/min/mg and 76 µL/min/mg.
With `O=C(NN1CCCCC1)c1ccc2c(c1)N=C(N1CCCCC1)c1ccccc1S2` [drawing 1792], the microsomal CLint at 1 μM in data set [1] was found to be 54 µL/min/mg; in data set [2], 536 µL/min/mg.
For the molecule `O=C(NCCCC(F)(F)F)c1ccc2c(c1)N=C(c1ccc(Cl)s1)c1ccccc1S2` [drawing 1655], the intrinsic clearance (microsomal CLint) at 1 μM was 31 µL/min/mg in data set [1] and 136 µL/min/mg in data set [2].
On the same counts, the results for `CC(C)CNC(=O)c1ccc2c(c1)N=C(c1ccc(Cl)cc1)c1ccc(F)cc1S2` [drawing 1657] are 11 µL/min/mg and 63 µL/min/mg.
For `O=C(NCc1cccc(Cl)c1)c1ccc2c(c1)N=C(c1cccc(Cl)c1)c1cc(F)ccc1S2` [drawing 1805], the microsomal CLint at 1 μM is 10 µL/min/mg in data set [1] and 61 µL/min/mg in data set [2].
On the same counts, the results for `CC(CNC(=O)c1ccc2c(c1)N=C(c1ccc(Cl)cc1)c1ccccc1S2)c1ccccc1` (centres unmarked) [drawing 1743] are 62 µL/min/mg and 179 µL/min/mg.
Regarding `CC(CNC(=O)c1ccc2c(c1)N=C(c1ccc(Cl)cc1)c1cc(F)ccc1S2)c1ccccc1` (centres unmarked) [drawing 1716], the results for the microsomal CLint at 1 μM in data set [1] and in data set [2] were 39 µL/min/mg and 165 µL/min/mg, respectively.
As for `Cc1csc(CNC(=O)c2ccc3c(c2)N=C(c2cccc(F)c2)c2ccccc2S3)c1` [drawing 1709], the values for the microsomal CLint at 1 μM in data set [1] and in data set [2] were 42 µL/min/mg and 160 µL/min/mg, respectively.
On the same counts, the results for `CC(CNC(=O)c1ccc2c(c1)N=C(c1cccc(Cl)c1)c1ccccc1S2)c1ccccc1` (centres unmarked) [drawing 1755] are 56 µL/min/mg and 174 µL/min/mg.
In the case of `O=C(NCc1ccccc1)c1ccc2c(c1)N=C(C1CCCCC1)c1ccccc1S2` [drawing 1779], the microsomal CLint at 1 μM is 81 µL/min/mg in data set [1] and 351 µL/min/mg in data set [2].

What is called microsomal CLint is the rate of metabolic loss divided by the concentration.
